Assay results taken from patent US20260021095A1, “BIFUNCTIONAL COMPOUNDS CONTAINING PYRIDO[2,3-d]PYRIMIDIN-7(8H)-ONE DERIVATIVES FOR DEGRADING CYCLIN-DEPENDENT KINASE 2 VIA UBIQUITIN PROTEASOME PATHWAY” (NIKANG THERAPEUTICS, INC., priority 2022, published 2026).

How the values were obtained:
[1] = target: T1, CDK2 (Homo sapiens, UniProt P24941); assay: Inhibition of CDK2: phospho-Rb (S807/811) HTRF measurement in OVCAR3 cells; format: cell-based; conditions: 24 h compound treatment, HTRF phospho-RB S807/811, read-out: pRb OVCAR3 (μM), CDK2 IC50 in pRB(S807/811) assay
T1 construct: High-Throughput Measurement of Cellular Endogenous CDK2; endogenous in cells; host or cells: OVCAR3
Experimental: Phosphorylation of RB protein at S807/811 were measured using HTRF phospho-RB cellular kits (Cat #64RBS807PEG) from Cisbio.
On Day 1, OVCAR3 (CDK2 dependent cell line) cells were seeded into 96-well tissue-culture treated plates at 20,000 cells/well in 200 μL and incubated overnight at 37° C. in CO2 atmosphere. On Day 2, the cells were treated with test compounds at concentrations from 0.3 to 10,000 nM using HP D300 digital dispenser. Twenty-four hours after compound treatment, cell culture media was removed by flicking the plate and tapping the plate against clean paper towel. Immediately 30 μL 1× lysis buffer was supplemented from the kit and the plate was incubated at room temperature on shaker for 30 min. After homogenization by pipetting up and down, 8 μL cell lysate from 96-well cell culture plate was transferred to 384-well small volume white detection plate. 2 μL premixed detection solution was added and the plate was covered with sealer. […] Detection plates were incubated for 4 h at room temperature and read on ClarioStar (BMG Labtech) in TR-FRET mode ([…]). […] Half maximal inhibition concentration (IC50) values are calculated with a four-parameter logistic fit using GraphPad Prism (version 8; La Jolla, CA). […]

[2] = target: T1, CDK2; assay: High-throughput HTRF measurement of cellular endogenous CDK2 (degradation) in OVCAR3 cells; format: cell-based; conditions: HTRF total CDK2, read-out: DC50 OVCAR3_6 h
Experimental: Effects of compounds on cellular CDK2 level can be monitored by a high-throughput HTRF assay.
To determine half maximal degradation concentration (DC50) values of compounds, cellular CDK2 level was measured in 96-well format using HTRF total CDK2 cellular kit (Cat #64CDK2TPEG) from Cisbio.
On Day 1, OVCAR3 cells were seeded into 96-well tissue-culture treated plates at 20,000 cells/well in 200 μL and incubated overnight at 37° C. in C02 atmosphere. On Day 2 cells were treated with compounds at concentration ranging from 0.3 to 10,000 nM using HP D300 digital dispenser. […] Immediately 30 μL 1× lysis buffer was supplemented from the kit and the plate was incubated at room temperature on shaker for 30 min. After homogenization by pipetting up and down, 8 μL cell lysate from 96-well cell culture plate was transferred to 384-well small volume white detection plate. 2 μL premixed detection solution was added and the plate was covered with sealer. […] Detection plates were incubated overnight at room temperature and read on ClarioStar (BMG Labtech) in TR-FRET mode (665 nM and 620 nM). […] Half maximal degradation concentration (DC50) values were calculated with a four-parameter logistic fit using GraphPad Prism (version 8; La Jolla, CA).

SMILES | IC50 [1] | DC50 [2]
Cn1nc(N2CCC(=O)NC2=O)c2ccc(C3CCN(Cc4cccc(S(=O)(=O)N5CC[C@H](Nc6ncc7ccc(=O)n(C)c7n6)[C@H](F)C5)c4)CC3)cc21 (racemic) [compound 1, Rac-1-(6-(1-(3-(((3R,4S)-3-fluoro-4-((8-methyl-7-oxo-7,8-dihydropyrido[2,3-d]pyrimidin-2-yl)amino)piperidin-1-yl)sulfonyl)benzyl)-piperidin-4-yl)-1-methyl-1H-indazol-3-yl)-dihydropyrimidine-2,4(1H,3H)-dione] | 0.1 to 1 µM | 41.9 nM
Cn1nc(N2CCC(=O)NC2=O)c2ccc(C3CCN(Cc4cccc(S(=O)(=O)N5CC[C@H](Nc6ncc7ccc(=O)n(CC(F)(F)F)c7n6)[C@H](F)C5)c4)CC3)cc21 (racemic) [compound 2, Rac-1-(6-(1-(3-(((3R,4S)-3-fluoro-4-((7-oxo-8-(2,2,2-trifluoroethyl)-7,8-dihydropyrido[2,3-d]pyrimidin-2-yl)amino)piperidin-1-yl)-sulfonyl)benzyl)piperidin-4-yl)-1-methyl-1H-indazol-3-yl)dihydropyrimidine-2,4(1H,3H)-dione] | 1 to 10 µM | 1310 nM
